The results in this text go back to patent US9487489B2, “Halogen-substituted pyrazole derivatives as pest-control agents” (BAYER CROPSCIENCE AKTIENGESELLSCHAFT, priority 2013, dated 2016).

Series [1] deals with caterpillars of the armyworm (Spodoptera frugiperda). Description: Spodoptera frugiperda spray test (SPODFR). It is filed as in vivo. The following applies: maize leaf discs, after 7 days. The method in brief:
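Maize leaf discs sprayed with compound in acetone/DMF with alkylaryl polyglycol ether emulsifier (1000 ppm) in water, dried, then infested with armyworm caterpillars. Mortality (%) scored after 7 days; 100% = all caterpillars killed, 0% = none killed.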

Series [2] deals with L1 larvae of the Australian sheep blowfly (Lucilia cuprina). Description: Lucilia cuprina test (LUCICU). The format is in vivo. To be noted: application rate 100 ppm; after 2 days. Summed up: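 About 20 L1 larvae placed in a vessel with minced horsemeat plus compound (DMSO concentrate diluted with water to the desired concentration). Kill in % scored after 2 days, 100% meaning all larvae dead.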

The subject of series [3] is larvae of the mustard beetle (Phaedon cochleariae). The experiment in a line: Phaedon cochleariae spray test (PHAECO). The format is in vivo. The following applies: Chinese cabbage leaf discs, after 7 days. The method in brief:
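Compound dissolved in acetone/dimethylformamide with alkylaryl polyglycol ether emulsifier, made up in water containing 1000 ppm emulsifier, then diluted to test concentrations and sprayed against mustard beetle larvae. Efficacy (% larvae killed) scored after 7 days.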

For series [4], the system named is engorged adult female cattle ticks (Boophilus microplus). Description: Boophilus microplus injection test (BOOPMI Inj). The format is in vivo. The following applies: application rate 20 μg/animal; injection into abdomen; assessed after 7 days. Summed up: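 DMSO solution of compound (1 μl) injected into the abdomen of 5 engorged adult female ticks, which are then held in a climate-controlled room. After 7 days, efficacy is scored from laying of fertile eggs, with unclear eggs kept until larval hatch (~42 days); 100% means no fertile eggs, 0% all fertile.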

The test system of series [5] is adult cat fleas (Ctenocephalides felis). The experiment in a line: Ctenocephalides felis oral test (CTECFE). To be noted: application rate 100 ppm in citrated cattle blood; after 2 days. It is filed as in vivo. Summed up: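 About 20 unfed adult cat fleas fed through parafilm membrane on citrated cattle blood containing compound (DMSO stock diluted in blood to test concentration). Kill % scored after 2 days (100% = all fleas dead).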

The test system of series [6] is greenhouse red spider mite (Tetranychus urticae). The experiment in a line: Tetranychus urticae spray test, OP-resistant (TETRUR). The format is in vivo. The following applies: bean leaf discs, after 6 days. The method in brief: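 Bean leaf discs carrying all stages of OP-resistant Tetranychus urticae were sprayed with compound formulated in acetone/dimethylformamide and diluted in water with 1000 ppm alkylaryl polyglycol ether emulsifier. Mortality (% efficacy, 100% = all mites killed) scored after 6 days.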

Series [7] deals with adult houseflies (Musca domestica). The experiment in a line: Musca domestica test (MUSCDO). The format is in vivo. The following applies: application rate 100 ppm; after 2 days. As for the experimental part: F. Musca domestica Test (MUSCDO)
Solvent: dimethyl sulphoxide
To produce a suitable preparation of active compound, 10 mg of active compound are mixed with 0.5 ml of dimethyl sulphoxide, and the concentrate is diluted with water to the desired concentration.
Vessels containing a sponge treated with sugar solution and the active compound preparation of the desired concentration are populated with 10 adult houseflies (Musca domestica).
After 2 days, the kill in % is determined. 100% means that all of the flies have been killed; 0% means that none of the flies have been killed.

In series [8] the test system is adult cat fleas (Ctenocephalides felis). Description: Ctenocephalides felis in vitro contact test with adult cat fleas (T1). The following applies: after 48 h. The method in brief:
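Test compound was dissolved in acetone p.a. (9 mg per 1 ml) and diluted as needed. 250 μl was spread evenly over the inner walls and floor of a 25 ml test tube by rotating on an orbital shaker for 2 h at 30 rpm. Once the solvent evaporated, 5-10 adult Ctenocephalides felis were added. Tubes were capped with a perforated plastic lid and kept horizontal at room temperature and ambient humidity.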

Series [9] can be described thus: logP determination by HPLC on a reversed-phase column (C18), EEC Directive 79/831 Annex V.A8. To be noted: HPLC on reversed-phase column (C18), acetonitrile/water with formic acid, EEC Directive 79/831 Annex V.A8. The format is physicochemical. The method in brief: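 Retention on a C18 reversed-phase column (Zorbax Eclipse Plus, 1.8 micron) was used, eluting with acetonitrile/water, each containing formic acid. The gradient ran from 10% to 95% acetonitrile over 4.25 min, then held 1.25 min, at 55° C and 2.0 ml/min, with MS detection.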

With `Cn1nc(C(F)(F)C(F)(F)F)c(C(F)(F)F)c1-n1cc(-c2cc(F)cc(C(=O)NC3CC3)c2)cn1` [Ic-39], the efficacy in % in [1] (application rate 100 g/ha), in series [1] (application rate 500 g/ha), in series [3] (application rate 500 g/ha) and in [6] (application rate 100 g/ha) was 100% throughout. Moreover, the “efficacy (kill in %)” value in series [2], in series [5] and in series [7] was 100% in each case. Moreover, the “efficacy (laying of fertile eggs)” value in [4] was 100%.

For the compound `CC(NC(=O)c1cc(-c2cnn(-c3c(C(F)(F)F)c(C(F)(F)C(F)(F)F)nn3C)c2)ccc1Cl)C(N)=O` (stereo not drawn) [Ic-154], the efficacy in % in series [1] (application rate 500 g/ha), in [3] (application rate 500 g/ha) and in series [6] (application rate 500 g/ha) was 100% throughout. In addition, the “efficacy (dead or moribund fleas)” value in series [8] (application rate 1 μg/cm^2) is given as 100%; in [8] (application rate 5 μg/cm^2), 80%. Also, the “efficacy (kill in %)” value in series [2] was 100%; in series [5], 100%; in series [7] it was 90%. Besides, the “efficacy (laying of fertile eggs)” value in [4] worked out at 100%.

For the compound `Cn1nc(C(F)(F)C(F)(F)F)c(C(F)(F)F)c1-n1cc(-c2cc(Cl)cc(C(=O)NC3CC3)c2)cn1` [Ic-44], the efficacy in % came to 100% in series [1] (application rate 500 g/ha), 100% in series [3] (application rate 500 g/ha) and 80% in [6] (application rate 500 g/ha). The “efficacy (kill in %)” value is on record as 100% in series [2], 100% in series [5] and 80% in [7]. The “efficacy (laying of fertile eggs)” value in series [4] is recorded as 100%.

Consider `Cn1nc(C(F)(F)C(F)(F)F)c(C(F)(F)F)c1-n1cc(-c2cc(C(=O)NC3(C#N)CC3)cc(F)c2F)cn1` [Ic-64], for which the efficacy in % in series [1] (application rate 100 g/ha), in [3] (application rate 500 g/ha) and in series [6] (application rate 100 g/ha) was 100% throughout. Besides, the “efficacy (kill in %)” value in series [2] was found to be 100%; in series [5], 100%; in series [7], 80%. For the same compound, the “efficacy (laying of fertile eggs)” value in [4] was found to be 100%.

Turning to `Cn1nc(C(F)(F)C(F)(F)F)c(C(F)(F)F)c1-n1cc(-c2ccc(Cl)c(C(=O)Nc3ccccn3)c2)cn1` [Ic-140], the efficacy in % in series [1] (application rate 500 g/ha), in series [3] (application rate 500 g/ha) and in series [6] (application rate 500 g/ha) was 100% in each case. In addition, the “efficacy (dead or moribund fleas)” value in series [8] (application rate 1 μg/cm^2) and in [8] (application rate 5 μg/cm^2) was 100% each time. Further, the “efficacy (kill in %)” value in series [2] was found to be 100%; in series [5] it was 100%; in series [7] it was 90%. In addition, in [4], the “efficacy (laying of fertile eggs)” value turned out to be 100%.

Turning to `Cn1nc(C(F)(F)C(F)(F)F)c(C(F)(F)F)c1-n1cc(-c2ccnc(C(=O)NC3(C#N)CC3)c2)cn1` [Ic-76], the values for the efficacy in % in series [1] (application rate 500 g/ha), in series [3] (application rate 500 g/ha) and in [6] (application rate 500 g/ha) were 100%, 100% and 80%, respectively. In addition, the “efficacy (kill in %)” value in series [2] came to 100%; in series [5], 100%; in series [7], 80%. For the same compound, the “efficacy (laying of fertile eggs)” value in series [4] was found to be 100%.

For orientation: logP means the decadic logarithm of the partition coefficient of the neutral form, usually between octanol and water. Turning to `Cc1nn(-c2c(C(F)(F)F)c(C(F)(F)C(F)(F)F)nn2C)cc1-c1ccc(Cl)c(C(=O)NC2CC2)c1` [Ic-12], the efficacy in % in [1] (application rate 100 g/ha) and in [3] (application rate 100 g/ha) was 100% throughout. Further, the “efficacy (dead or moribund fleas)” value in [8] (application rate 1 μg/cm^2) and in [8] (application rate 5 μg/cm^2) was 100% throughout. Further, the “efficacy (kill in %)” value in series [2], in [5] and in [7] was 100% throughout. Besides, the “efficacy (laying of fertile eggs)” value in series [4] came out at 100%. The same compound yielded a logP in series [9] of 3.97.

As for `Cn1nc(C(F)(F)C(F)(F)F)c(C(F)(F)F)c1-n1cc(-c2ccc(Cl)c(C(=O)Nc3ccccc3)c2)cn1` [Ic-136], the efficacy in % in series [1] (application rate 500 g/ha), in [3] (application rate 500 g/ha) and in series [6] (application rate 500 g/ha) was 100% throughout. In addition, the “efficacy (kill in %)” value in series [2] came out at 100%; in series [5], 100%; in [7] it was 90%. Besides, the “efficacy (laying of fertile eggs)” value in series [4] worked out at 100%.
